How the values were obtained:
Format in all cases: in vivo
[1] = system: AMARE (Amaranthus retroflexus); experiment: Post-emergence herbicidal action against AMARE; conditions: visual assessment after about 3 weeks
Method: (§1) Seeds of monocotyledonous and dicotyledonous weed and crop plants are laid out in sandy loam soil in wood-fiber pots, covered with soil and cultivated in a greenhouse under good growth conditions. 2 to 3 weeks after sowing, the trial plants are treated at the one-leaf stage. The compounds of the invention, formulated in the form of wettable powders (WP) or as emulsion concentrates (EC), are then sprayed onto the green parts of the plants as aqueous suspension or emulsion at a water application rate equating to 600 to 800 l/ha with addition of 0.2% wetting agent. After the test plants have been left to stand in the greenhouse under optimal growth conditions for about 3 weeks, the action of the preparations is assessed visually in comparison to untreated controls (herbicidal action in percent (%): 100% activity=the plants have died, 0% activity=like control plants).

[2] = system: VIOTR (Viola tricolor); experiment: Pre-emergence herbicidal effect against VIOTR; conditions: scored visually after 3 weeks
Text: (§2) Seeds of monocotyledonous and dicotyledonous weed plants and crop plants are laid out in sandy loam soil in wood-fiber pots and covered with soil. The compounds of the invention, formulated in the form of wettable powders (WP) or as emulsion concentrates (EC), are then applied to the surface of the covering soil as aqueous suspension or emulsion at a water application rate equating to 600 to 800 l/ha with addition of 0.2% wetting agent. After the treatment, the pots are placed in a greenhouse and kept under good growth conditions for the trial plants. The damage to the test plants is scored visually after a test period of 3 weeks by comparison with untreated controls (herbicidal activity in percent (%): 100% activity=the plants have died, 0% activity=like control plants).

[3] = system: ABUTH (Abutylon threophrasti); experiment: Pre-emergence herbicidal effect against ABUTH; conditions: scored visually after 3 weeks
Text: as §2

[4] = system: KCHSC (Kochia scoparia); experiment: Pre-emergence herbicidal effect against KCHSC; conditions: scored visually after 3 weeks
Text: as §2

[5] = system: ECHCG (Echinochloa crus-galli); experiment: Pre-emergence herbicidal effect against ECHCG; conditions: 80 g/ha, scored visually after 3 weeks
Text: as §2

[6] = system: VIOTR (Viola tricolor); experiment: Post-emergence herbicidal action against VIOTR; conditions: visual assessment after about 3 weeks
Method: as §1

[7] = system: SETVI (Setaria viridis); experiment: Pre-emergence herbicidal effect against SETVI; conditions: 80 g/ha, scored visually after 3 weeks
Text: as §2

[8] = system: KCHSC (Kochia scoparia); experiment: Post-emergence herbicidal action against KCHSC; conditions: visual assessment after about 3 weeks
Method: as §1

[9] = system: VERPE (Veronica persica); experiment: Post-emergence herbicidal action against VERPE; conditions: 80 g/ha, visual assessment after about 3 weeks
Method: as §1

[10] = system: AMARE (Amaranthus retroflexus); experiment: Pre-emergence herbicidal effect against AMARE; conditions: scored visually after 3 weeks
Text: as §2

[11] = system: PHBPU (Pharbitis purpurea); experiment: Post-emergence herbicidal action against PHBPU; conditions: visual assessment after about 3 weeks
Method: as §1

[12] = system: ABUTH (Abutylon threophrasti); experiment: Post-emergence herbicidal action against ABUTH; conditions: 80 g/ha, visual assessment after about 3 weeks
Method: as §1

[13] = system: SETVI (Setaria viridis); experiment: Post-emergence herbicidal action against SETVI; conditions: visual assessment after about 3 weeks
Method: as §1

[14] = system: DIGSA (Digitaria sanguinalis); experiment: Post-emergence herbicidal action against DIGSA; conditions: visual assessment after about 3 weeks
Method: as §1

[15] = system: MATIN (Matricaria inodora); experiment: Post-emergence herbicidal action against MATIN; conditions: visual assessment after about 3 weeks
Method: as §1

[16] = system: DIGSA (Digitaria sanguinalis); experiment: Pre-emergence herbicidal effect against DIGSA; conditions: scored visually after 3 weeks
Text: as §2

[17] = system: POLCO (Polygonum convolvulus); experiment: Pre-emergence herbicidal effect against POLCO; conditions: 80 g/ha, scored visually after 3 weeks
Text: as §2

CSc1c(OC(F)(F)F)ccc(C(=O)Nc2nnco2)c1Cl [Example 1-31, 2-chloro-3-(methylsulfanyl)-N-(1,3,4-oxadiazol-2-yl)-4-(trifluoromethoxy)benzamide]
80%: Post-emergence effect at 80 g/ha against VERPE in % [9] | Post-emergence effect at 20 g/ha against SETVI in % [13] | Post-emergence effect at 20 g/ha against MATIN in % ([15]; 20 g/ha)
90%: Pre-emergence effect at 20 g/ha against VIOTR in % [2] | Pre-emergence effect at 80 g/ha against VIOTR in % [2] | Pre-emergence effect at 20 g/ha against ABUTH in % ([3]; 20 g/ha) | Pre-emergence effect at 20 g/ha against KCHSC in % [4] | Post-emergence effect at 20 g/ha against VIOTR in % [6] | Post-emergence effect at 20 g/ha against PHBPU in % ([11]; 20 g/ha) | Post-emergence effect at 80 g/ha against PHBPU in % ([11]; 80 g/ha) | Post-emergence effect at 80 g/ha against ABUTH in % [12] | Post-emergence effect at 80 g/ha against SETVI in % [13] | Post-emergence effect at 20 g/ha against DIGSA in % [14] | Post-emergence effect at 80 g/ha against DIGSA in % [14] | Post-emergence effect at 80 g/ha against MATIN in % ([15]; 80 g/ha) | Pre-emergence effect at 20 g/ha against DIGSA in % [16]
100%: Post-emergence effect at 20 g/ha against AMARE in % [1] | Post-emergence effect at 80 g/ha against AMARE in % [1] | Pre-emergence effect at 80 g/ha against ABUTH in % [3] | Pre-emergence effect at 80 g/ha against KCHSC in % [4] | Pre-emergence effect at 80 g/ha against ECHCG in % [5] | Post-emergence effect at 80 g/ha against VIOTR in % [6] | Pre-emergence effect at 80 g/ha against SETVI in % [7] | Post-emergence effect at 20 g/ha against KCHSC in % [8] | Post-emergence effect at 80 g/ha against KCHSC in % [8] | Pre-emergence effect at 80 g/ha against AMARE in % [10] | Pre-emergence effect at 80 g/ha against DIGSA in % [16]

CSc1c(OC(F)F)ccc(C(=O)Nc2nnco2)c1Cl [Example 1-21, 2-chloro-4-(difluoromethoxy)-3-(methylsulfanyl)-N-(1,3,4-oxadiazol-2-yl)benzamide]
90%: Pre-emergence effect at 20 g/ha against KCHSC in % [4] | Pre-emergence effect at 80 g/ha against KCHSC in % [4] | Pre-emergence effect at 80 g/ha against SETVI in % [7] | Post-emergence effect at 20 g/ha against KCHSC in % [8] | Pre-emergence effect at 20 g/ha against AMARE in % ([10]; 20 g/ha) | Post-emergence effect at 20 g/ha against DIGSA in % [14] | Post-emergence effect at 80 g/ha against DIGSA in % [14] | Pre-emergence effect at 20 g/ha against DIGSA in % [16]
80%: Post-emergence effect at 80 g/ha against ABUTH in % [12] | Post-emergence effect at 20 g/ha against SETVI in % [13]
100%: Post-emergence effect at 20 g/ha against AMARE in % [1] | Post-emergence effect at 80 g/ha against AMARE in % [1] | Pre-emergence effect at 20 g/ha against VIOTR in % [2] | Pre-emergence effect at 80 g/ha against VIOTR in % [2] | Pre-emergence effect at 80 g/ha against ABUTH in % [3] | Pre-emergence effect at 80 g/ha against ECHCG in % [5] | Post-emergence effect at 20 g/ha against VIOTR in % [6] | Post-emergence effect at 80 g/ha against VIOTR in % [6] | Post-emergence effect at 80 g/ha against KCHSC in % [8] | Pre-emergence effect at 80 g/ha against POLCO in % [17] | Pre-emergence effect at 80 g/ha against AMARE in % [10] | Post-emergence effect at 80 g/ha against SETVI in % [13] | Pre-emergence effect at 80 g/ha against DIGSA in % [16]

From US20240287007A1, “N-(1,3,4-OXADIAZOL-2-YL)PHENYLCARBOXAMIDES AS HERBICIDES” (BAYER AKTIENGESELLSCHAFT, priority 2021, published 2024)
